# Source: patent publication US20230012368A1 (Hoffmann-La Roche Inc., priority 2018, published 2023)
# Counter-ions that a name gives are not always drawn.
# System: Acinetobacter baumannii ATCC 17978
# Assay: Antimicrobial susceptibility testing: 90% growth inhibitory concentration (IC90) determination
# Assay type: cell-based
# Conditions: 90% growth inhibitory concentration; Acinetobacter baumannii ATCC17978; Iso-Sensitest broth, OD 600 nm over 16h; read-out: ATCC17978 IC90
# Method in brief: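 Growth of the Acinetobacter baumannii strain was followed by optical density at 600 nm every 20 minutes for 16h at 35±2° C. Inoculum was ~5×10^(5) CFU/ml in Iso-Sensitest medium, with twofold compound dilutions (e.g. 50 to 0.097 μM final). The 90% inhibitory concentration was derived in log-phase growth.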
row,Compound,IC90 [nM]
1,"COc1ccc(-c2cnc3c(Nc4ccc(C(=O)N(C)CCN5CCNCC5)c(Cl)c4)nccn23)c(F)c1F [Example 44, 2-chloro-4-[[3-(2,3-difluoro-4-methoxy-phenyl)imidazo[1,2-a]pyrazin-8-yl]amino]-N-methyl-N-(2-piperazin-1-ylethyl)benzamide; 2,2,2-trifluoroacetic acid]",120
2,"CCc1cc(Nc2nccn3c(-c4ccc(OC)c(F)c4F)cnc23)ccc1C(=O)NCC(C)CNC(=O)[C@@H](N)CCCNC(=N)N (mixture of isomers) [Example 406, rac-N-(3-((R)-2-amino-5-guanidinopentanamido)-2-methylpropyl)-4-((3-(2,3-difluoro-4-methoxyphenyl)imidazo[1,2-a]pyrazin-8-yl)amino)-2-ethylbenzamide diformate]",240
3,"4-((3-(4- (difluoromethoxy) phenyl)imidazo[1,2- a]pyrazin-8- yl)amino)-N-methyl- 2- (trifluoromethyl) benzamide [Example 53]",240

# Same assay, conditions: Acinetobacter baumannii, ATCC17978, 16 h, 90% growth inhibitory concentration; Acinetobacter baumannii ATCC17978; Iso-Sensitest broth, OD 600 nm over 16h; read-out: ATCC17978 IC90
row,Compound,IC90 [nM]
1,"Cc1cc(Nc2nccn3c(-c4ccc(OCC#N)c(F)c4F)cnc23)ccc1C(=O)NC[C@H](N)CNC(=O)[C@@H]1C[C@@H](O)CN1 [Example 470, (2S,4R)-N-[(2S)-2-amino-3-[[4-[[3-[4-(cyanomethoxy)-2,3-difluoro-phenyl]imidazo[1,2-a]pyrazin-8-yl]amino]-2-methyl-benzoyl]amino]propyl]-4-hydroxy-pyrrolidine-2-carboxamide; formic acid]",600
2,"CCc1cc(Nc2nccn3c(-c4ccc(Oc5ccc(OC)cn5)c(F)c4F)cnc23)ccc1C(=O)NCCNC(=O)CCN [Example 448, N-[2-(3-aminopropanoylamino)ethyl]-4-[[3-[2,3-difluoro-4-[(5-methoxy-2-pyridyl)oxy]phenyl]imidazo [1,2-a]pyrazin-8-yl]amino]-2-ethyl-benzamide; formic acid]",470
3,"CCc1cc(Nc2nccn3c(-c4ccc(OC)c(F)c4F)cnc23)ccc1C(=O)NCCNC(=O)NCCCN [Example 335, N-[2-(3-aminopropylcarbamoylamino)ethyl]-4-[[3-(2,3-difluoro-4-methoxyphenyl)imidazo[1,2-a]pyrazin-8-yl]amino]-2-ethylbenzamide]",430
4,COc1ccc(-c2cnc3c(Nc4ccc(C(=O)NCCC5CCN(C)CC5)c(C)c4)nccn23)cc1 [Example 48],220
5,"CCc1cc(Nc2nccn3c(-c4ccc(OC)c(F)c4F)cnc23)ccc1C(=O)NCC(=O)NCCO [Example 423, 4-((3-(2,3-difluoro-4-methoxyphenyl)imidazo[1,2-a]pyrazin-8-yl)amino)-2-ethyl-N-(2-((2-hydroxyethyl)amino)-2-oxoethyl)benzamide]",210
6,"COc1ccc(-c2cnc3c(Nc4ccc(C(=O)NCCC5CCNCC5)c(C)c4)nccn23)cc1 [Example 191, 4-[[3-(4-methoxyphenyl)imidazo[1,2-a]pyrazin-8-yl]amino]-2-methyl-N-(2-piperidin-4-ylethyl)benzamide;hydrochlo-ride]",330
7,"CCc1cc(Nc2nccn3c(-c4ccc(OC)c(F)c4F)cnc23)ccc1C(=O)NCCNC(=O)CCCNCCCN [Example 564, N-(2-(4-((3-aminopropyl)amino)butanami-do)ethyl)-4-((3-(2,3-difluoro-4-methoxyphenyl)imidazo[1,2-a]pyrazin-8-yl)amino)-2-ethylbenzamide trihydrochloride]",500
8,"COc1ccc(-c2cnc3c(Nc4ccc(C(=O)NCC5CCN(C(=N)N)CC5)c(C)c4)nccn23)cc1Cl [Example 82, N-((1-carbamimidoyl-piperidin-4-yl)methyl)-4-((3-(3-chloro-4-methoxyphenyl)imidazo [1,2-a]pyrazin-8-yl)amino)-2-methylbenzamide]",270
9,COc1ccc(-c2cnc3c(Nc4ccc(C(=O)NCCN5CCN(C)CC5)c(C)c4)nccn23)cc1 [Example 49],470
10,"Cc1cc(Nc2nccn3c(-c4ccc(OC(F)F)cc4)cnc23)ccc1C(=O)N(C)CCCCN [Example 200, N-(4-aminobutyl)-4-[[3-[4-(difluoromethoxy)phenyl]im-idazo[1,2-a]pyrazin-8-yl]amino]-N,2-dimethylbenzamide;hydrochlo-ride]",440
11,"CNCCCN1CCc2cc(Nc3nccn4c(-c5ccc(OC)c(F)c5F)cnc34)ccc2C1=O [Example 568, 6-[[3-(2,3-difluoro-4-methoxy-phenyl)imidazo[1,2-a]pyrazin-8-yl]amino]-2-[3-(methylamino)propyl]-3,4-dihydroisoquinolin-1-one]",390
12,"COc1ccc(-c2cnc3c(Nc4ccc(C(=O)NCC5CCN(C)CC5)c(C)c4)nccn23)c(F)c1F [Example 62, 4-((3-(2,3-difluoro-4-methoxyphenyl)imidazo [1,2-a]pyrazin-8-yl)amino)-2-methyl-N-((1-methylpiperidin-4-yl)methyl)benzamide]",250
13,"CCc1cc(Nc2nccn3c(-c4ccc(Oc5ccncn5)c(F)c4F)cnc23)ccc1C(=O)NCCCNC(=O)NCCNCCCN [Example 565, N-[3-[2-(3-aminopropylamino)ethylcar-bamoylamino]propyl]-4-[[3-(2,3-difluoro-4-pyrimidin-4-yloxy-phenyl)imidazo[1,2-a]pyrazin-8-yl]amino]-2-ethyl-benzamide; formic acid]",300
14,"CCc1cc(Nc2nccn3c(-c4ccc(OC)c(F)c4F)cnc23)ccc1C(=O)N[C@H](C)CN [Example 101, (R)-N-(1-aminopropan-2-yl)-4-((3-(2,3-difluoro-4-methoxyphenyl)imidazo [1,2-a]pyrazin-8-yl)amino)-2-ethylbenzamide dihydrochloride]",240
15,"Cc1cc(Nc2nccn3c(-c4ccc(OC(F)F)cc4)cnc23)ccc1C(=O)NCCCC[C@H](N)C(=O)O [Example 271, (2S)-2-amino-6-[[4-[[3-[4-(difluoromethoxy)phenyl]im-idazo[1,2-a]pyrazin-8-yl]amino]-2-methylbenzoyl]amino]hexa-noic acid]",9300
16,"CCc1cc(Nc2nccn3c(-c4ccc(OC)c(F)c4F)cnc23)ccc1C(=O)N[C@H](C)CNC(=O)[C@@H](N)CCCNC(=N)N [Example 331, N-[(2R)-1-[[(2S)-2-amino-5-carbamimidamidopentanoyl]amino]propan-2-yl]-4-[[3-(2,3-difluoro-4-methoxyphenyl)imidazo[1,2-a]pyrazin-8-yl]amino]-2-ethylbenzamide;formic acid]",300
17,"CCc1cc(Nc2nccn3c(-c4ccc(OC)c(F)c4F)cnc23)ccc1C(=O)NC1(CNC(=O)[C@@H](N)CCCCN)CC1 [Example 484, N-[1-[[[(2S)-2,6-diaminohexanoyl]amino]meth-yl]cyclopropyl]-4-[[3-(2,3-difluoro-4-methoxy-phenyl)imidazo[1,2-a]pyrazin-8-yl]amino]-2-ethyl-benzamide]",280
18,"CCc1cc(Nc2nccn3c(-c4ccc(Oc5ccc(OCCN)cn5)c(F)c4F)cnc23)ccc1C(=O)NC [Example 512, 4-[[3-[4-[[5-(2-aminoethoxy)-2-pyridyl]oxy]-2,3-difluoro-phenyl]imidazo[1,2-a]pyrazin-8-yl]amino]-2-ethyl-N-methyl-benzamide; formic acid]",510
19,"Cc1cc(Nc2nccn3c(-c4ccc(OC(F)F)cc4)cnc23)ccc1C(=O)N(C)CCCN1CCNCC1 [Example 219, 4-[[3-[4-(difluoromethoxy)phenyl]im-idazo[1,2-a]pyrazin-8-yl]amino]-N,2-dimethyl-N-(3-piperazin-1-ylpropyl)benzamide;hydrochlo-ride]",1000
20,"N#CCOc1ccc(-c2cnc3c(Nc4ccc(C(=O)NCCCCCN)c(Cl)c4)nccn23)c(F)c1F [Example 496, N-(5-aminopentyl)-2-chloro-4-[[3-[4-(cyanomethoxy)-2,3-difluorophenyl]imidazo[1,2-a]pyrazin-8-yl]amino]benzamide]",23
21,"CCc1cc(Nc2nccn3c(-c4ccc(OC)c(F)c4F)cnc23)ccc1C(=O)NCC1CN(C)C1 [Example 297, 4-[[3-(2,3-difluoro-4-methoxyphenyl)imidazo[1,2-a]pyrazin-8-yl]amino]-2-ethyl-N-[(1-methylazetidin-3-yl)methyl]benzamide]",150
22,"C#CCNC(=O)c1ccc(Nc2nccn3c(-c4ccc(OC)c(F)c4F)cnc23)cc1CC [Example 541, 4-[[3-(2,3-difluoro-4-methoxyphenyl)imidazo[1,2-a]pyrazin-8-yl]amino]-2-ethyl-N-prop-2-ynylbenzamide]",62
23,"CCc1cc(Nc2nccn3c(-c4ccc(Oc5ccccn5)c(F)c4F)cnc23)ccc1C(=O)NCC(=O)N1CCN[C@H](CO)C1 [Example 474, 4-[[3-[2,3-difluoro-4-(2-pyridyloxy)phenyl]imidazo [1,2-a]pyrazin-8-yl]amino]-2-ethyl-N-[2-[(3S)-3-(hydroxymethyl)piperazin-1-yl]-2-oxo-ethyl]benzamide]",910
24,"COc1ccc(-c2cnc3c(Nc4ccc(C(=O)N(C)CCN)cc4)nccn23)cc1 [Example 264, N-(2-aminoethyl)-4-[[3-(4-methoxyphenyl)imidazo[1,2-a]pyrazin-8-yl]amino]-N-methylbenzamide; hydrochlo-ride]",5100
25,"CCc1cc(Nc2nccn3c(-c4ccc(OC)c(F)c4F)cnc23)ccc1C(=O)NCC(=O)NCCNC [Example 428, 4-[[3-(2,3-difluoro-4-methoxy-phenyl)imidazo[1,2-a]pyrazin-8-yl]amino]-2-ethyl-N-[2-[2-(methylamino)ethylamino]-2-oxo-ethyl]benzamide; formic acid]",410
26,"CNC(=O)c1ccc(Nc2nccn3c(-c4ccc(Cl)cc4)cnc23)cc1C [Example 185, 4-[[3-(4-chlorophenyl)imidazo[1,2-a]pyrazin-8-yl]amino]-N,2-dimethylbenzamide]",230
